According to patent US20060211705A1, “'N-(2-chloro-6-methylphenyl)-2-[[6-[4-(2-hydroxyethyl)-1-piperazinyl]-2-methyl-4-pyrimidinyl]amino]-5-thiazolecarboxamides metabolites” (priority 2005, published 2006):

Assays:
[1] = Metabolite profile of [14C] compound (I) in human hepatocyte incubations; assay type: in vitro ADME; conditions: (Ia) 20 μM, 3 h, 37° C., ~2 million cells/mL; relative distribution in radiochromatographic profile
Experimental: (§1) The compound of formula (I) was used as the [^14C] compound (Ia) (30.4 μCi/mg, radiochemical purity 99.2%), as the monohydrate of the free base. The C-14 label was on the carbon in the 2-position of the thiazole ring.
(§2) Freshly isolated rat hepatocyte preparations were prepared from one male Sprague-Dawley rat. Rat Hepatocytes were prepared according to a standard procedure (Seglen, PO. Preparation of isolated rat liver cells. Methods Cell Biol., 1976, 13: 29-83). Cryopreserved cynomolgus monkey hepatocytes (male, pooled, n=6) and human hepatocytes (3 individual preparation) were purchased from In Vitro Technologies (Baltimore, Md.). Microsomes from male SD Rats (pooled, n=200, 20 mg/mL) and male cynomolgus monkeys (pooled, n=8, 20 mg/mL) were obtained from Xenotech LLC, Kansas City, Kans. Human liver microsomes (male, pooled, n=38) were from BD-Gentest, Woburn, Mass.
(§3) A 6 mM stock solution of the compound of formula (Ia) (the [^14C] of the compound of formula (I) was prepared at by dissolving 3.7 mg of the compound of formula (Ia) into 1:1 acetonitrile/DMSO. The 2 mM stock solution of the compound of formula (Ia) was obtained by diluting an aliquot of the 6 mM stock solution 3-fold with acetonitrile.
(§4) Human (3 vials from 3 individuals) and monkey cryopreserved hepatocytes were thawed according to the procedure provided by In Vitro Technologies. Briefly, the caps of the cryovials were loosened to release any trapped liquid nitrogen and kept on ice for 2 min. The caps were tightened and the vials were immersed in a 37° C. water bath for 75-90 sec with gentle shaking. The thawed samples (3 cryovials/[…] for each 50 mL tube) were transferred into 25 mL pre-warmed Krebs-Henseleit buffer in a 50 mL tube and gently inverted. The suspensions were evenly divided into 2 tubes and diluted to 40 mL with pre-warmed Krebs-Henseleit buffer. The tubes were centrifuged in an Eppendorf 5810R centrifuge (Hamburg, Germany) at 200 rpm at 4° C. for 10 min. The supernatant was discarded and the pellet gently suspended in 2 mL of Krebs-Henseleit buffer. All the tubes were combined into one tube, rinsing the empty tubes with 1 mL Krebs-Henseleit buffer. The cells were counted, checked for viability and diluted accordingly with modified Krebs-Henseleit buffer to give a final concentration of 2 million viable cells/mL.
(§5) Viability of the hepatocytes was checked using a Trypan Blue exclusion assay and a hemocytometer. A mixture of 0.1 mL of the hepatocyte suspension and 0.1 mL of trypan blue solution were diluted with 0.8 mL of Krebs-Henseleit buffer. The solution was gently mixed and plated onto a Levy hemocytometer (Hausser Scientific) and the viable cells (unstained) were counted under a light microscope. The viability of the hepatocytes ranged from 77% to 90% at the beginning of the incubations.
(§6) Hepatocyte incubations were conducted at 37° C. for 3 h in a NAPCO CO2 6000 incubator (VWR Scientific Products) under a 5% CO2 atmosphere using an orbital shaker at 90 rpm. For each incubation, the final concentration of compound (Ia) was 20 μM and the hepatocyte concentrations were ˜2 million cells/mL. A control incubation, in the absence of hepatocytes, was also performed for 3 h. The incubations were stopped by adding one volume of ice-cold acetonitrile. Each 0.5 mL incubation contained 0.1 M potassium phosphate buffer (pH 7.4), 2.5 mM MgCl2, 2 mg/mL microsomal protein, and 2.0 mM NADPH. The final substrate concentration was 20 μM. The mixtures were incubated in a shaking water bath at 37° C. for 15 min. Control incubations in the absence of microsomes or NADPH were performed for each species. The reactions were stopped with the addition of 1 mL of ice-cold acetonitrile.
(§7) HPLC was performed on a Waters Alliance™ system equipped with Waters 2695 pumps and a photodiode array detector (Waters 2996). A Phenomenex Synergy Polar-RP® column (4.6×250 mm, 5 micron) was used for metabolite separation. […]

[2] = Metabolite profile of [14C] compound (I) in rat liver microsome incubations; assay type: in vitro ADME, SD rat; conditions: (Ia) 20 μM, 15 min, 37° C., 2 mg/mL microsomal protein, 2.0 mM NADPH
Experimental: as §1, §2, §3, §6
(§8) HPLC was performed on a Waters Alliance™ system equipped with Waters 2695 pumps and a photodiode array detector (Waters 2996). A Phenomenex Synergy Polar-RP® column (4.6×250 mm, 5 micron) was used for metabolite separation. All HPLC analyses were performed at 1 mL/min flow rate at room temperature. Two HPLC mobile phase and gradient systems were used because all metabolites could not be completely separated on either of the individual HPLC systems. The first system consisted of (A) water with 0.1% formic acid and (B) acetonitrile with 0.1% formic acid as mobile phase. The linear gradient was as follows: 0 min, 20% B; 1 min, 20% B; 41 min, 35% B; 42 min, 90% B; 44 min, 90% B. The column was re-equilibrated at 20% B for 6 min before the next injection. The second HPLC system was used to separate certain co-eluting metabolites that could not be separated by the first system. The mobile phase consisted of (A) water with 0.1% triflouroacetic acid (TFA) and (B) acetonitrile with 0.1% TFA. The gradient was as follows: 0 min, 20% B; 1 min, 20% B; 51 min, 35% B; 52 min, 90% B; 54 min 90% B. The column was equilibrated at 20% B for 6 min prior to the next injection.
(§9) On-line radioactivity detection (RAD) was conducted using an INUS β-RAM detector (Model 3, INUS, Tampa, Fla.). The β-RAM was operated with a 500 μL liquid flow cell in the homogeneous liquid scintillation counting mode. A flow rate of 2 mL/min of scintillation cocktail was mixed with the HPLC effluent. The effluent from HPLC was split to the β-RAM detector (90%) and the mass spectrometer (10%) by adjusting the length and diameter of post column tubings. The β-RAM detector provided integrated output detailing the percentage and amount of radioactivity under each radioactive peak.
(§10) Hepatocyte and liver microsomal incubations were quenched with acetonitrile and were vortex-mixed for 3 min. […]

[3] = Metabolite profile of [14C] compound (I) in monkey liver microsome incubations; assay type: in vitro ADME, cynomolgus monkey; conditions: (Ia) 20 μM, 15 min, 37° C., 2 mg/mL microsomal protein, 2.0 mM NADPH
Experimental: as §1, §2, §3, §6, §8, §9, §10

[4] = Metabolite profile of [14C] compound (I) in human liver microsome incubations; assay type: in vitro ADME; conditions: (Ia) 20 μM, 15 min, 37° C., 2 mg/mL microsomal protein, 2.0 mM NADPH
Experimental: as §1, §2, §3, §6, §8, §9, §10

[5] = Metabolite profile of [14C] compound (I) in monkey hepatocyte incubations; assay type: in vitro ADME, cynomolgus monkey; conditions: (Ia) 20 μM, 3 h, 37° C., ~2 million cells/mL; relative distribution in radiochromatographic profile
Experimental: as §1, §2, §3, §4, §5, §6, §7

Row | Compound | % of Radioactivity in Hepatocytes, Human [1] [%] | % of Radioactivity in Microsomes, Rat [2] [%] | % of Radioactivity in Microsomes, Monkey [3] [%] | % of Radioactivity in Microsomes, Human [4] [%] | % of Radioactivity in Hepatocytes, Monkey [5] [%]
1 | Cc1nc(Nc2ncc(C(=O)Nc3c(C)cccc3Cl)s2)cc(N2CC[N+]([O-])(CCO)CC2)n1 [M5 (III)] | 2.3 | 37.3 | 8.6 | 4.0 | 3.2
2 | Cc1nc(Nc2ncc(C(=O)Nc3c(C)cc(O)cc3Cl)s2)cc(N2CCN(CCO)CC2)n1 [M20 (V)] | 2.6 | 4.5 | 30.0 | 39.2 | 4.5
3 | Cc1nc(Nc2ncc(C(=O)Nc3c(C)cccc3Cl)s2)cc(N2CCN(CC(=O)O)CC2)n1 [M6 (IV), 2-(4-(6-(5-((2-Chloro-6-methylphenyl)carbamoyl)thiazol-2-ylamino)-2-methylpyrimidin-4-yl)piperazin-1-yl)acetic acid] | 9.2 | 0.7 | 2.1 | 1.6 | 6.5
4 | Cc1nc(Nc2ncc(C(=O)Nc3c(Cl)cccc3CO)s2)cc(N2CCN(CCO)CC2)n1 [M24 (VI), N-(2-chloro-6-(hydroxymethyl)phenyl)-2-(6-(4-(2-hydroxyethyl)piperazin-1-yl)-2-methylpyrimidin-4-ylamino)thiazole-5-carboxamide] | 2.6 | 4.5 | 30.0 | 39.2 | 4.5
5 | Cc1nc(Nc2ncc(C(=O)Nc3c(C)cccc3Cl)s2)cc(N2CCNCC2)n1 [M4 (II)] | 1.0 | 1.8 | 5.8 | 4.0 | 3.7
6 | Cc1nc(Nc2ncc(C(=O)Nc3c(C)cccc3Cl)s2)cc(N2CCN(CCO)CC2)n1 [Parent (I), N-(2-Chloro-6-methylphenyl)-2-[[6-[4-(2-hydroxyethyl)-1-piperazinyl]-2-methyl-4-pyrimidinyl]amino]-5-thiazolecarboxamide] | 77.7 | 54.2 | 27.7 | 35.5 | 61.2
